Laboratory results reported in patent US20070155838A1, “New Method for Treating Urinary Disorders” (Pfizer Inc, priority 2003, published 2007).

Legend:
[1] = tested on: muscarinic receptors of the salivary gland; details: compared with oxybutynin; cited from earlier work
[2] = tested on: women with urinary urgency and frequency; assay: randomized, double-blind, placebo-controlled study of tolterodine tartrate (Detrol) tablets 1 mg b.i.d. in women with urinary urgency and frequency; type: in vivo, human
Protocol: The objective of a study is to evaluate the efficacy and safety of tolterodine tartrate (Detrol®) tablets 2 mg daily versus placebo, in the treatment of urinary urgency and frequency in women, in a randomized, double-blind, placebo-controlled study. The patients received 1 mg tolterodine b.i.d. or placebo, and the dosage regime was one tablet orally, every 8-12 hours, not to exceed 2 tablets daily. The treatment duration was 10 days, after a 5 day pretreatment baseline phase. […] women were included in the study, and were randomized to either the tolterodine or placebo group. All of the subjects were eligible for intent-to-treat (ITT) and safety analysis. 1077 of the randomized subjects were included in the per-protocol analysis.
Females with symptoms urinary urgency, defined as having to stop the current activity and go immediately to the bathroom at least once a day (severe) or able to finish a task but go right to the bathroom at least twice a day (moderate), were included. Frequency was defined as >7 micturitions per 24 hours. The mean age was 48 years. About 83% of the subjects were Caucasian.
Women were asked to complete a diary recording the time of awakening; number and severity of urgency of each micturition, and the number of episodes of incontinence throughout the day as well as, time when tablets taken. The women were directed to begin using the study drug after 5 days (baseline, pretreatment period): 1 tablet every 8-12 hours not to exceed 2 tablets per day.
Thus, this study was designed to evaluate the efficacy and safety of tolterodine 1 mg twice daily, every 8-12 hours, compared to placebo, in women with urinary urgency and frequency. The primary efficacy endpoints were: • 1. Subject perception of improvement in symptoms of urgency after five days of treatment, vs. baseline period, using a three-point categorical scale (Chi Square analysis): • 2. Mean of daily average severity of urgency for urgent episodes (urgency rating score of at least 1) for the 5-day baseline period vs. first five days of treatment.
A five-point categorical scale was used to assess the severity of urgency experienced at each micturition, ranging from 0 (no discomfort) to 4 (very severe).
The secondary efficacy endpoints were: • 1. Average number of urgency episodes per day per subject for the 5-day baseline period vs. first five days of treatment. • 2. Average urgency score (severity of urgency) per subject for micturition episodes accompanied by urgency (a rating score of at least 1) for the 5-day baseline period vs. first day of treatment. • 3. Average number of micturitions per day per subject for the 5-day baseline period vs. first five days of treatment.
Subject perception of improvement in symptoms or urgency after ten days of treatment, vs. baseline period, using a three-point categorical scale (Chi Square analysis).
The sudden urge to urinate accompanied by frequency of urination is a problem for many adults. The symptoms of urgency are most problematic. Therefore, the primary variables examined the subjective perception of improvement in urgency as well as the severity of urgency in subjects treated with tolterodine 1 mg b.i.d. In addition, the frequency of urination was examined as this is a standard assessment tool commonly used to assess the efficacy of drugs for the treatment of overactive bladder syndrome.
Two populations were analyzed for efficacy: the intent-to-treat (ITT) and the per-protocol populations. The former comprised all individuals randomized to treatment. The latter consisted of those individuals who complied with the protocol with regard to eligibility, visit schedule, diary completion and treatment schedule. All randomized subjects who took study medication were included in the safety analyses. Incidence of adverse events was tabulated for all randomized subjects. […]

[3] = tested on: bladder; details: compared with oxybutynin; cited from earlier work
[4] = all analyzed time points, including day 1, compared to placebo
[5] = all analyzed time points, compared to placebo

In the case of `Cc1ccc(O)c([C@H](CCN(C(C)C)C(C)C)c2ccccc2)c1` [tolterodine, (R)-N,N-diisopropyl-3-(2-hydroxy-5-methylphenyl)-3-phenylpropanamine], the “affinity for muscarinic receptors of the salivary gland relative to oxybutynin” value [1] is listed as “eight times lower”, the “subjects with AEs related to nervous system disorders” value ([2]; 1 mg b.i.d. oral, 10 days, placebo 2.0%) is listed as 3.0% and the “subjects with adverse events considered related to study medication” value ([2]; 1 mg b.i.d. oral, 10 days, placebo 4.7%) is listed as 4.8%. The “subjects with AEs related to gastrointestinal disorders” value ([2]; 1 mg b.i.d. oral, 10 days, placebo 4.9%) was 5.6%, the “subjects reporting adverse events” value ([2]; 1 mg b.i.d. oral, 10 days, placebo 10.7%) was 10.8% and the “subjects with AEs related to nervous system disorders (number)” value ([2]; 1 mg b.i.d. oral, 10 days, placebo 13) was 20 subjects. For the same compound, the “subjects with adverse events considered related to study medication (number)” value ([2]; 1 mg b.i.d. oral, 10 days, placebo 31) was “thirty-two”, the “subjects with AEs related to gastrointestinal disorders (number)” value ([2]; 1 mg b.i.d. oral, 10 days, placebo 32) was 37 subjects and the “subjects reporting adverse events (number)” value ([2]; 1 mg b.i.d. oral, 10 days, placebo 70) was “Seventy-one”. The “subjects discontinued from the study due to AEs (number)” value ([2]; 1 mg b.i.d. oral, 10 days, placebo four) was “Three”, the “subjects reporting serious AEs (number)” value ([2]; 1 mg b.i.d. oral, 10 days, placebo one) was “Three” and the “percentage of subjects reporting symptom improvement (subject perception of improvement in symptoms of urgency)” value ([2]; Day 5, 1 mg b.i.d. oral, compared to placebo) was “statistically significantly higher percentage”. The “decrease in severity of urgency for all micturitions” value [2, 4] was “statistically significantly greater decrease”, the “decrease in severity of urgency for urgent episodes” value [2, 4] was “statistically significantly greater decrease” and the “decrease in the number of micturitions/day” value [2, 5] was “statistically significantly greater decrease”. For the same compound, the “reduction in the number of urgent episodes/day” value [2, 5] was “statistically significantly greater reduction”, the “reduction from baseline in number of micturitions/day” value ([2]; days 1-5, 1 mg b.i.d. oral, N=660, placebo 1.26) was 1.59 and the “improvement from baseline in severity of urgency for urgent episodes (score, 0-4 scale)” value ([2]; days 1-5, 1 mg b.i.d. oral, placebo 0.19) was 0.27. The “potency in the bladder relative to oxybutynin” value [3] was “equipotent with oxybutynin”.
